Test results as given in article PMC5846726, “Characterization of the Mel1c melatoninergic receptor in platypus (Ornithorhynchus anatinus)” (PLoS ONE, 2018).

target: T1, Platypus Mel1C (Ornithorhynchus anatinus, UniProt A0A2P1K6N2); test: 2-[125I]-iodomelatonin competition binding, membranes from stably transfected CHO cells, platypus Mel1c; settings: membranes from stably transfected CHO cells; radioligand 2-[125I]-iodomelatonin; read-out: Platypus Mel1C (converted)
Method: (§1) CHO-Flp-In cells (Thermo Fisher Scientific, Waltham, USA) were cultivated in the presence of zeocin (0.1 mg/ml). The cells were cotransfected with either platypus (cloned sequence that will be submitted to GenBank) Mel1c/pcDNA5-FRT (platypus Mel1c) or X. laevis (NM 001087919.1) Mel1c/pcDNA5-FRT (clawed frog Mel1c) and Flp recombinase expression pOG44 plasmid using PEIpro (Invitrogen, Carlsbad, CA). CHO cells stably expressing platypus Mel1c or clawed frog Mel1c were selected using hygromycin (0.6 mg/ml). CHO-Flp-In-platypus Mel1c cells were grown in HAM F12 with 2 mM glutamine and supplemented with 10% fetal calf serum. Cells were selected using antibiotic pressure (hygromycin) for 72 h. […] After confirmation of the presence of the transgene, the cells were amplified up to 2 x 10^9 cells. This material was used to prepare the cell membranes used in further pharmacological experiments.
(§2) This standard procedure was described in a previous experiment with CHO cells expressing the sheep MT2 receptor [23]. […] The resulting pellet was suspended in 5 mM Tris/HCl (pH 7.4) containing 2 mM EDTA and homogenized using a Kinematica polytron. The homogenate was then centrifuged (20,000g, 30 min, 4°C) and the resulting pellet suspended in 75 mM Tris/HCl (pH 7.4) containing 2 mM EDTA and 12.5 mM MgCl2. The protein content was determined according to the method of Lowry et al. using the Bio-Rad kit (Bio-Rad SA, Ivry-sur-Seine, France). Aliquots of membrane preparations were stored in binding buffer (50 mM Tris/HCl, pH 7.4 containing 5 mM MgCl2 and 1 mM EDTA) at –80°C until use.
(§3) This approach has been described very often by our laboratory and others. […] The results were expressed as Ki, taking into account the concentration of radioligand used in each experiment. […] The reaction was stopped by rapid filtration through GF/B Unifilters, followed by three successive washes with ice-cold buffer. Data were analyzed by using the program PRISM (GraphPad Software Inc., San Diego, CA). For saturation assays, the density of binding sites (Bmax) and the dissociation constant of the radioligand (KD) were calculated according to the Scatchard method. […] A similar protocol was used when the binding was performed on whole cells, as described by Legros et al.. As per Plos One policy, all the raw data–listings from radioactivity counter are attached as raw files (Supplementary Tables A to M in S1 Data).

T1 sequence (A0A2P1K6N2 1-349): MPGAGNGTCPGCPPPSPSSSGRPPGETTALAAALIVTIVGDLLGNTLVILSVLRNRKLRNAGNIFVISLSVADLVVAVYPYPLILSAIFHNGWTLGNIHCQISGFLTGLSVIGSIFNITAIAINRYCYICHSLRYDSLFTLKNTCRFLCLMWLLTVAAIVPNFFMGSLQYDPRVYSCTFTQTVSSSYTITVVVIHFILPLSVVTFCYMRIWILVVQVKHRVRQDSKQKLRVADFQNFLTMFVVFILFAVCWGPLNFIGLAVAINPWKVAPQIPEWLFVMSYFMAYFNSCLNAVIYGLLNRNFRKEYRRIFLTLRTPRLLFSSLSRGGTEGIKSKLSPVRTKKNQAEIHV

| Ki [nM] | Compound |
| --- | --- |
| 2000 | COc1ccc(CCN(C)CCCC(C#N)(c2cc(OC)c(OC)c(OC)c2)C(C)C)cc1OC (stereo not shown) [D600, methoxyverapamil] |
| 100 | COc1ccc2[nH]cc(CCNC(C)=O)c2c1I [4-Iodomelatonin, N-[2-(4-iodo-5-methoxy-1H-indol-3-yl)ethyl]acetamide] |
| 2000 | COc1ccc2ncn(CCNC(C)=O)c2c1 [S21278, N-[2-(6-methoxybenzimidazol-1-yl)ethyl]acetamide] |

| Compound | Ki [nM] |
| --- | --- |
| CCC(=O)N[C@@H]1Cc2ccccc2[C@H](c2ccccc2)C1 [4P-PDOT, N-[(2S,4S)-4-phenyl-1,2,3,4-tetrahydronaphthalen-2-yl]propanamide] | 631 |

target: T1, Platypus Mel1C; test: 2-[125I]-iodomelatonin competition binding, transiently transfected COS7 cells, platypus Mel1c; settings: COS7 cells transiently transfected with Mel1c gene; radioligand 2-[125I]-iodomelatonin; two transfections, triplicate
Method: (§4) COS7 cells obtained from the American Type Culture Collection were maintained in DMEM GlutaMAX (Thermo Fisher Scientific, Waltham, USA) supplemented with 10% (v/v) fetal calf serum. Nucleofection of COS7 cells was performed according to the manufacturer's instructions using the Nucleofector machine (Amaxa, Cologne, Germany). Adherent COS7 cells were washed in phosphate-buffered saline (PBS), trypsinized, and gently resuspended in V nucleofection solution to a final concentration of 7 × 10^6 cells/100 μl. Next, 5 μg of pCIneo/Mel1c vector was mixed with 100 μl of the COS7 cell suspension, transferred to a […] electroporation cuvette, and nucleofected using program A024 and an Amaxa Nucleofector apparatus. Just after the nucleofection, 500 μl of media supplemented with 20% (v/v) fetal calf serum was added to the cell suspension and cultured in a humidified 37°C, 5% CO2 incubator for 20 minutes. Fourteen million cells were transferred to a T225 flask containing 50 ml of media supplemented with 20% (v/v) fetal calf serum and cultured in a humidified 37°C, 5% CO2 incubator. Two days after transfection, the cells were harvested in PBS, pelleted, and stored at -80°C until use.
as §3
(§5) To obtain stable expression of the receptor for future studies, a preliminary step involving transient expression of the receptor was performed. The Mel1c receptors from the three species were expressed in transiently transfected COS7 cells. A limited number of compounds were tested in order to gain a preliminary perception of the characteristics of Mel1c from these species.

| Compound | pKi Ornithorhyncus anatinus |
| --- | --- |
| CCC(=O)N[C@@H]1Cc2ccccc2[C@H](c2ccccc2)C1 [4P-PDOT, N-[(2S,4S)-4-phenyl-1,2,3,4-tetrahydronaphthalen-2-yl]propanamide] | 6.7 |

target: T2, hMT2 (Homo sapiens, UniProt P49286); test: 2-[125I]-iodomelatonin competition binding, human MT2; settings: membranes from stably transfected CHO cells; radioligand 2-[125I]-iodomelatonin; read-out: hMT2 (converted)
T2 sequence (P49286 1-362): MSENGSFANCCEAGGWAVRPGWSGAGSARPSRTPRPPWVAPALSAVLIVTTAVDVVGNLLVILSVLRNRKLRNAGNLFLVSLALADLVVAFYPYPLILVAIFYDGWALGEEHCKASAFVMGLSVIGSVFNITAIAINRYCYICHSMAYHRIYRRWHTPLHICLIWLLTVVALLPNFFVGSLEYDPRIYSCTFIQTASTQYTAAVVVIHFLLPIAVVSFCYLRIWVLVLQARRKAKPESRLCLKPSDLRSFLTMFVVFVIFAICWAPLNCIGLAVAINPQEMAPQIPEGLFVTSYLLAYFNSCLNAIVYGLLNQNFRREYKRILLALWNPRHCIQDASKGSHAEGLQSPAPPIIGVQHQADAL
Method: as §3

| Ki [nM] | Compound |
| --- | --- |
| > 10000 | COc1ccc(CCN(C)CCCC(C#N)(c2cc(OC)c(OC)c(OC)c2)C(C)C)cc1OC (stereo not shown) [D600, methoxyverapamil] |
| 12.6 | COc1ccc2[nH]cc(CCNC(C)=O)c2c1I [4-Iodomelatonin, N-[2-(4-iodo-5-methoxy-1H-indol-3-yl)ethyl]acetamide] |
| 631 | COc1ccc2ncn(CCNC(C)=O)c2c1 [S21278, N-[2-(6-methoxybenzimidazol-1-yl)ethyl]acetamide] |

| Compound | Ki [nM] |
| --- | --- |
| CCC(=O)N[C@@H]1Cc2ccccc2[C@H](c2ccccc2)C1 [4P-PDOT, N-[(2S,4S)-4-phenyl-1,2,3,4-tetrahydronaphthalen-2-yl]propanamide] | 1.26 |

target: T3, X. laevis Mel1c receptor (Xenopus laevis, UniProt P49219); test: 2-[125I]-iodomelatonin competition binding, transiently transfected COS7 cells, Xenopus Mel1c; settings: COS7 cells transiently transfected with Mel1c gene; radioligand 2-[125I]-iodomelatonin; two transfections, triplicate; read-out: pKi Xenopus laevis (converted)
T3 construct: expressed in transfected cells; host or cells: COS7 (transient nucleofection, pCIneo vector)
T3 sequence (P49219 1-354 isoform P49219-2): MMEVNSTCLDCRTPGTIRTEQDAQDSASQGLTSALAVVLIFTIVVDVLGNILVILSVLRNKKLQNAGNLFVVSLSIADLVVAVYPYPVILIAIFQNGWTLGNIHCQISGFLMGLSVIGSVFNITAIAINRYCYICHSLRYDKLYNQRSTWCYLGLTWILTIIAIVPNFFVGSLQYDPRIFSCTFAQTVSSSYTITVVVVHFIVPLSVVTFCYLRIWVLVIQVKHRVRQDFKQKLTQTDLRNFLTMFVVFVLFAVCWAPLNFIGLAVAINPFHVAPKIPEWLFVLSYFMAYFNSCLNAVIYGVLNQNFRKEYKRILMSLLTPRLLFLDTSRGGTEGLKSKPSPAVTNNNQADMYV
Method: as §4, §3, §5

| Compound | Ki [nM] |
| --- | --- |
| CCC(=O)N[C@@H]1Cc2ccccc2[C@H](c2ccccc2)C1 [4P-PDOT, N-[(2S,4S)-4-phenyl-1,2,3,4-tetrahydronaphthalen-2-yl]propanamide] | 200 |

target: T4, Xenopus Mel1C (Xenopus laevis, UniProt P49219); test: 2-[125I]-iodomelatonin competition binding, membranes from stably transfected CHO cells, Xenopus Mel1c; settings: radioligand 2-[125I]-iodomelatonin
T4 construct: expressed in transfected cells
T4 sequence (P49219 1-420): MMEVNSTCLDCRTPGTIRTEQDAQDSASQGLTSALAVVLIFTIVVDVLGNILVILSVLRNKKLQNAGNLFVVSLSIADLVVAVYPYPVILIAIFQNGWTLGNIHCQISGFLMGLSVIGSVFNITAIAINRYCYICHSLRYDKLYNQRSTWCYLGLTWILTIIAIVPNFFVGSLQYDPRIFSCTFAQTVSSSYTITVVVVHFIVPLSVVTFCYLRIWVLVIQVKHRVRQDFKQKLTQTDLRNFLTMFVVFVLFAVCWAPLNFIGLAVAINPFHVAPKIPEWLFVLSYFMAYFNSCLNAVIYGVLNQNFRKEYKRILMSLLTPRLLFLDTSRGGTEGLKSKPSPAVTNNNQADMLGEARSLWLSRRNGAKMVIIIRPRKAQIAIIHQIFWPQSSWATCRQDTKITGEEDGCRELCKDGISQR
Method: as §1, §2, §3

| Ki [nM] | Compound |
| --- | --- |
| 2000 | COc1ccc(CCN(C)CCCC(C#N)(c2cc(OC)c(OC)c(OC)c2)C(C)C)cc1OC (stereo not shown) [D600, methoxyverapamil] |
| 251 | COc1ccc2[nH]cc(CCNC(C)=O)c2c1I [4-Iodomelatonin, N-[2-(4-iodo-5-methoxy-1H-indol-3-yl)ethyl]acetamide] |
| 1580 | COc1ccc2ncn(CCNC(C)=O)c2c1 [S21278, N-[2-(6-methoxybenzimidazol-1-yl)ethyl]acetamide] |

| Compound | Ki [nM] |
| --- | --- |
| CCC(=O)N[C@@H]1Cc2ccccc2[C@H](c2ccccc2)C1 [4P-PDOT, N-[(2S,4S)-4-phenyl-1,2,3,4-tetrahydronaphthalen-2-yl]propanamide] | 794 |

target: hMT1 (Homo sapiens, UniProt P48039); test: 2-[125I]-iodomelatonin competition binding, human MT1; settings: membranes from stably transfected CHO cells; radioligand 2-[125I]-iodomelatonin; read-out: hMT1 (converted)
Sequence (P48039 whole entry): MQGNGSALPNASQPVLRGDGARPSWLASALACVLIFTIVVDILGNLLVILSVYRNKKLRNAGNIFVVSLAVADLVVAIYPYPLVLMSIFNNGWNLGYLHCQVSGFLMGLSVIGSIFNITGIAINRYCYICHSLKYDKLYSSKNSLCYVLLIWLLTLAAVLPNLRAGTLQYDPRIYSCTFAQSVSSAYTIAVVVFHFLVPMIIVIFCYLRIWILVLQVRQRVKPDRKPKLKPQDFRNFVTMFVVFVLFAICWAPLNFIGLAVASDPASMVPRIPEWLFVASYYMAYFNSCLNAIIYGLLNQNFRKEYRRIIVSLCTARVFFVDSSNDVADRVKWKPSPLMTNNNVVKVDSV
Method: as §3

| Ki [nM] | Compound |
| --- | --- |
| 100 | COc1ccc(CCN(C)CCCC(C#N)(c2cc(OC)c(OC)c(OC)c2)C(C)C)cc1OC (stereo not shown) [D600, methoxyverapamil] |
| 15.8 | COc1ccc2[nH]cc(CCNC(C)=O)c2c1I [4-Iodomelatonin, N-[2-(4-iodo-5-methoxy-1H-indol-3-yl)ethyl]acetamide] |
| 631 | COc1ccc2ncn(CCNC(C)=O)c2c1 [S21278, N-[2-(6-methoxybenzimidazol-1-yl)ethyl]acetamide] |

| Compound | Ki [nM] |
| --- | --- |
| CCC(=O)N[C@@H]1Cc2ccccc2[C@H](c2ccccc2)C1 [4P-PDOT, N-[(2S,4S)-4-phenyl-1,2,3,4-tetrahydronaphthalen-2-yl]propanamide] | 158 |

target: T5, G. gallus Mel1c receptor (Gallus gallus, UniProt P49288); test: 2-[125I]-iodomelatonin competition binding, transiently transfected COS7 cells, chicken Mel1c; settings: not given
T5 construct: expressed in transfected cells; host or cells: COS7 (transient nucleofection, pCIneo vector)
T5 sequence (P49288 1-346): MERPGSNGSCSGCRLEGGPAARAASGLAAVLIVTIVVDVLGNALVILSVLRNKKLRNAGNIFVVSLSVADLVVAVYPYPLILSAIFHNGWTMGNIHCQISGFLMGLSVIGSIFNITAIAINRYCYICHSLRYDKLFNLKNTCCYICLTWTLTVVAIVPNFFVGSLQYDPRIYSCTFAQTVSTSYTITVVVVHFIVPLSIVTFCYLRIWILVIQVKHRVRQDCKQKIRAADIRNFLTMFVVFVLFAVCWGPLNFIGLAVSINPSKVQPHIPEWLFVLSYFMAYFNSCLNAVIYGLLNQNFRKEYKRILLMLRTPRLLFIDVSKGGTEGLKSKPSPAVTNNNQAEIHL
Method: as §4, §3, §5

| Compound | Ki [nM] |
| --- | --- |
| CCC(=O)N[C@@H]1Cc2ccccc2[C@H](c2ccccc2)C1 [4P-PDOT, N-[(2S,4S)-4-phenyl-1,2,3,4-tetrahydronaphthalen-2-yl]propanamide] | 398 |
